Test results reported in publication PMC10746543, “Design principles for cyclin K molecular glue degraders” (Nature Chemical Biology, 2023).
Values joined by “and” are separate entries in the source; they are usually repeats but may differ in a detail not shown here. Equal entries are not always repeated.

Target: CDK12–cyclin K (Homo sapiens, UniProt Q9NYV4)
Experiment: Lanthascreen kinase binding assay, CDK12
Conditions: for IC50: Supplementary Table 2, read-out: Lanthascreen IC50 [nM] CDK12; for Lanthascreen raw signal, sheet CDK12: duplicates
Procedure: Lanthascreen experiments were performed using commercially available reagents (Thermo Fisher) and according to the manufacturer’s instructions.

[1] = compound 0.038147 nM, series r49
[2] = compound 0.152588 nM, series r49
[3] = compound 0.610352 nM, series r49
[4] = compound 9.76563 nM, series r49
[5] = compound 39.0625 nM, series r49

Chain of CDK12–cyclin K (Q9NYV4 713-1052): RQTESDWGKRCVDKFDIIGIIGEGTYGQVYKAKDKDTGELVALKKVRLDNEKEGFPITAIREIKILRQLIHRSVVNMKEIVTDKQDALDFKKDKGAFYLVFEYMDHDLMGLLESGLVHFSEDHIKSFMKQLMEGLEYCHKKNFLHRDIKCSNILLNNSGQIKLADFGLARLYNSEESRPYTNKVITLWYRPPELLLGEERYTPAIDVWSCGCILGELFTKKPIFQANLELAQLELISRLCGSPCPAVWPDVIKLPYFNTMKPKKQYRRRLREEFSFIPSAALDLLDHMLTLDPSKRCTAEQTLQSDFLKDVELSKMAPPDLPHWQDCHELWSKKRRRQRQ
Chain of CDK12–cyclin K (O75909 1-267 partner limits assumed): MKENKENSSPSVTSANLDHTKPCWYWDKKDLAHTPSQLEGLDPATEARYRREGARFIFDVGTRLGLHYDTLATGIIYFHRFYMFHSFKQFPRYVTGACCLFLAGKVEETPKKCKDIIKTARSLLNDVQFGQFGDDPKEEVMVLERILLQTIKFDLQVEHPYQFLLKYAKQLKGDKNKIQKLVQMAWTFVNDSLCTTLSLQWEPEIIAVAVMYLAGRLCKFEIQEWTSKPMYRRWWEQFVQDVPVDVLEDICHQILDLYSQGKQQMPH

Cc1ccc(C(=O)N2CSCC2C(=O)Nc2ncc(C)s2)o1 (centres unmarked) [dCeMM4]
IC50: 6550 nM
Lanthascreen raw signal, sheet CDK12 (compound 0.038147 nM, series r13): 0.01232 and 0.01243
Lanthascreen raw signal, sheet CDK12 [1]: 0.008613 and 0.007971
Lanthascreen raw signal, sheet CDK12 (compound 0.152588 nM, series r13): 0.01076 and 0.01116
Lanthascreen raw signal, sheet CDK12 [2]: 0.01012 and 0.009882
Lanthascreen raw signal, sheet CDK12 (compound 0.610352 nM, series r13): 0.0114 and 0.01052
Lanthascreen raw signal, sheet CDK12 [3]: 0.009497 and 0.01011
Lanthascreen raw signal, sheet CDK12 (compound 1.02544 nM, series r1): 0.009042 and 0.01099
Lanthascreen raw signal, sheet CDK12 (compound 3.15521 nM, series r1): 0.01068 and 0.009679
Lanthascreen raw signal, sheet CDK12 (compound 9.46563 nM, series r1): 0.009286 and 0.009664
Lanthascreen raw signal, sheet CDK12 (compound 9.76563 nM, series r13): 0.01092 and 0.01022
Lanthascreen raw signal, sheet CDK12 [4]: 0.01048 and 0.01041
Lanthascreen raw signal, sheet CDK12 (compound 31.5521 nM, series r1): 0.009025 and 0.009021
Lanthascreen raw signal, sheet CDK12 (compound 39.0625 nM, series r13): 0.01118 and 0.01016
Lanthascreen raw signal, sheet CDK12 [5]: 0.009518 and 0.009698
Lanthascreen raw signal, sheet CDK12 (compound 99.3891 nM, series r1): 0.008619 and 0.008828
Lanthascreen raw signal, sheet CDK12 (compound 156.25 nM, series r13): 0.01038 and 0.009956
Lanthascreen raw signal, sheet CDK12 (compound 156.25 nM, series r49): 0.009802 and 0.01107
Lanthascreen raw signal, sheet CDK12 (compound 315.521 nM, series r1): 0.009446 and 0.008194
Lanthascreen raw signal, sheet CDK12 (compound 625 nM, series r13): 0.01123 and 0.01103
Lanthascreen raw signal, sheet CDK12 (compound 625 nM, series r49): 0.008992 and 0.00907
Lanthascreen raw signal, sheet CDK12 (compound 2500 nM, series r13): 0.01034 and 0.009721
Lanthascreen raw signal, sheet CDK12 (compound 2500 nM, series r49): 0.009117 and 0.008384
Lanthascreen raw signal, sheet CDK12 (compound 3155.21 nM, series r1): 0.008559 and 0.007567
Lanthascreen raw signal, sheet CDK12 (compound 10000 nM, series r13): 0.008264
Lanthascreen raw signal, sheet CDK12 (compound 10000 nM, series r49): 0.007507 and 0.007835
Lanthascreen raw signal, sheet CDK12 (compound 10002 nM, series r1): 0.008529 and 0.007315

CC(C)c1nn(-c2c(Cl)cccc2Cl)c2nc(Cc3ccc(OCCO)cc3)[nH]c(=O)c12 [compound 21195]
IC50: 31 nM
Lanthascreen raw signal, sheet CDK12 [1]: 0.008046 and 0.008167
Lanthascreen raw signal, sheet CDK12 [2]: 0.01001 and 0.009391
Lanthascreen raw signal, sheet CDK12 [3]: 0.008764 and 0.009174
Lanthascreen raw signal, sheet CDK12 (compound 0.76 nM, series r25): 0.01117 and 0.01013
Lanthascreen raw signal, sheet CDK12 (compound 1.02544 nM, series r1): 0.009771 and 0.007848
Lanthascreen raw signal, sheet CDK12 (compound 3.15521 nM, series r1): 0.009162 and 0.009522
Lanthascreen raw signal, sheet CDK12 (compound 4.57247 nM, series r25): 0.01016 and 0.01236
Lanthascreen raw signal, sheet CDK12 (compound 9.46563 nM, series r1): 0.007787 and 0.0086
Lanthascreen raw signal, sheet CDK12 [4]: 0.007441 and 0.00728
Lanthascreen raw signal, sheet CDK12 (compound 13.7174 nM, series r25): 0.01024 and 0.009436
Lanthascreen raw signal, sheet CDK12 (compound 31.5521 nM, series r1): 0.006914 and 0.007088
Lanthascreen raw signal, sheet CDK12 [5]: 0.007229 and 0.006516
Lanthascreen raw signal, sheet CDK12 (compound 41.1523 nM, series r25): 0.009216 and 0.008226
Lanthascreen raw signal, sheet CDK12 (compound 99.3891 nM, series r1): 0.004636 and 0.007689
Lanthascreen raw signal, sheet CDK12 (compound 123.457 nM, series r25): 0.007812 and 0.006741
Lanthascreen raw signal, sheet CDK12 (compound 156.25 nM, series r49): 0.006172 and 0.006187
Lanthascreen raw signal, sheet CDK12 (compound 315.521 nM, series r1): 0.005556 and 0.004599
Lanthascreen raw signal, sheet CDK12 (compound 370.37 nM, series r25): 0.006605 and 0.00608
Lanthascreen raw signal, sheet CDK12 (compound 625 nM, series r49): 0.006151 and 0.006004
Lanthascreen raw signal, sheet CDK12 (compound 2500 nM, series r49): 0.005584 and 0.005705
Lanthascreen raw signal, sheet CDK12 (compound 3155.21 nM, series r1): 0.006552 and 0.005285
Lanthascreen raw signal, sheet CDK12 (compound 3333.33 nM, series r25): 0.006042 and 0.006492
Lanthascreen raw signal, sheet CDK12 (compound 10000 nM, series r25): 0.006222 and 0.005571
Lanthascreen raw signal, sheet CDK12 (compound 10000 nM, series r49): 0.005751 and 0.005801
Lanthascreen raw signal, sheet CDK12 (compound 10002 nM, series r1): 0.00595 and 0.006099
